Entries after “also recorded” stand apart in the source; their conditions may differ.
How the values were obtained:
airway epithelial cells = experiment: In vitro clonogenic potential and colony-forming ability with Rho kinase inhibitor HA1077; type: cell-based; details: FIG. 11
From the text: FIG. 11. […] P53 and ROCK regulate epithelial colony-forming ability and “stemness”. Tp53 (p53) is a tumor suppressor that is one of the most commonly mutated genes in cancer. In addition to its classical functions of regulating cell fate following cellular stress, p53 regulates migration, autophagy, metabolism, and tumor microenvironment signaling. p53 regulates self-renewal and terminal differentiation of both neural and mammary stem cells in vitro, and of hematopoietic and kidney stem/progenitor cells in vivo. In the Inventors' previous work the Inventors have shown that loss of p53 function promotes stem cell renewal in vivo and leads to a dramatic increase in colony-forming epithelial progenitor cells in vitro. The impact of p53 loss-of-function on airway epithelial in vitro colony-forming ability can be phenocopied by pharmacologic inhibition of Rho kinase (ROCK). Experiments proposed in the Inventors' application will use transient pharmacologic modulation of ROCK and p53 as tools to enhance survival and “sternness” of transplanted epithelial cells and overcome the need for co-transplanted structural lung cells for their efficient engraftment.

distal progenitor cells = experiment: Differentiation potential of distal progenitors after 3D organoid culture with inhibitors; type: cell-based; details: 14 days with Pifithrin-alpha, ROCKi and SB431542, then 7 days without inhibitors, PDPN and SPC staining
Experimental: FIG. 16. […] Distal progenitor cells were cultured as 3D organoids for 14 days in presence of Pifithrin-alpha, ROCKi and SB431542 followed by culture for 7 days in media without all three inhibitors. […] DAPI (blue) is a nuclear stain.
(§1) Distal progenitor cells were cultured as 3D organoids for 14 days in presence of Pifithrin-alpha, ROCKi and SB431542 followed by culture for 7 days in media without all three inhibitors. […] Addition of ROCKi (in presence of SB431542) increases the colony forming efficiency of freshly isolated club cells (regional stem cells which maintain certain cell types in the bronchiolar epithelium) whereas addition of Pifithrin alpha (in presence of SB431542) increases the size of Scgb1a1-derived organoids. Addition of both ROCKi (in presence of SB431542) increases the colony forming efficiency of freshly isolated murine proximal total epithelial cells (isolated from the murine trachea).

[1] = tested on: freshly isolated murine distal total epithelial cells; experiment: 3D organoid culture of freshly isolated murine distal total epithelial cells; type: cell-based; details: for % colony forming efficiency: freshly isolated murine lung epithelial cells, addition to the culture medium (FIG. 3)
From the text: (§2) FIG. 1. Experimental design. Preconditioning of donor cells, including addition of small molecules such as ROCK inhibitor, pifithrin α, or combined together, and generation of organoids.
FIG. 3. […] Addition of the TGF-β inhibitor, SB 431542 to the culture medium increases the % colony forming efficiency of freshly isolated murine lung epithelial cells. Addition of Pifithrin α causes an increase in organoids size, while addition of ROCKi causes an increase in the colony forming efficiency.
FIG. 13. Effect of p53 and ROCKi inhibition on murine freshly isolated distal total epithelial cells in (+SB431542). Addition of both ROCKi and Pifithrin alpha (in presence of SB431542) increases the colony forming efficiency of freshly isolated murine distal total epithelial cells (isolated from the lung without trachea). […] Pifithrin alpha also causes an increase in the size of the organoids (C). […] The drop in mean diameter of the Pifithrin alpha+ROCKi group is likely due to space constraints because of the large number of organoids per well.
Further described herein is a cell culture including a quantity of human stem cells, or stem cell derived cells in a cell culture media including at least one molecule including: a RHO-kinase (ROCK) inhibitor, SMAD inhibitor, and p53 inhibitor. In other embodiments, the RHO-kinase inhibitor is Y27632 and the p53 inhibitor is Pifithrin α. In other embodiments, the stem cells are adult stem cells. In other embodiments, the stem cell derived cells are lung epithelial cells. In various embodiments, the aforementioned inhibitors are at a concentration of 0.1-1 uM, 1-5 uM, 5-10 uM, 10-25 uM, 25-50 uM, or 50 uM or more. In various embodiments, the p53 inhibitor is Pifithrin-alpha. For example, this includes a media formulated as follows: 5 mL FBS, 500 uL ITS (100×), 50 uL Fungizone, 500 uL Pen/Strep (100×), DMEM/F12 up to 50 mL, 5 uL SB431542, Pifithrin-alpha 10 uM, ROCKi (Y-27632 dihydrochloride)—10 uM. Also described herein is a quantity of organoids including cells made by the aforementioned methods. In various embodiments, the organoids include proximal and/or distal cells. In various embodiments, the distal cells are alveolar type II progenitors and/or Scgb1a1 positive club progenitor cells.

[2] = tested on: freshly isolated club cells; experiment: Organoid culture of lineage labelled murine club cells; type: cell-based; details: GFP+ club cells, in presence of SB431542
From the text: FIG. 17. Effect of ROCK and P53 inhibition on lineage labelled murine club cells. GFP^+ club cells were isolated from tamoxifen treated Scgb1a1-CreER/ROSARG mice. Addition of ROCKi (in presence of SB431542) increases the colony forming efficiency of freshly isolated club cells (regional stem cells which maintain certain cell types in the bronchiolar epithelium) whereas addition of Pifithrin alpha (in presence of SB431542) increases the size of Scgb1a1-derived organoids.
as §1

[3] = tested on: human bronchial epithelial stem cells; details: inhibition of ROCK1 and 2; cited from earlier work
freshly isolated cells = experiment: Freshly isolated cells cultured with small molecules at different time points (proliferation); type: cell-based; details: different time points (FIG. 2)
From the text: as §2
FIG. 2. Freshly isolated cells cultured with small molecules at different time points.

[4] = tested on: murine pre-cultured distal total epithelial cells; experiment: 3D organoid culture of murine distal total epithelial cells pre-cultured 24 hrs on collagen coated plates; type: cell-based; details: pre-cultured on collagen coated plates for 24 hrs after isolation, +SB431542; dihydrochloride
From the text: FIG. 4. Effect of pre-culturing—Day 3. Pre-culturing cells on collagen coated plates for 24 hrs after initial isolation increases the rate of organoid formation, with organoids being visible as early as day 3 in culture.
FIG. 5. Effect of pre-culturing—Day 8. Addition of Pifithrin α causes an increase in organoids size, while addition of ROCKi causes an increase in the colony forming efficiency. This effect is more pronounced when cells are pre-cultured for 24 hrs on collagen coated plates after initial isolation.
FIG. 14. Effect of inhibitors on murine pre-cultured distal total epithelial cells in (+SB431542). Addition Pifithrin alpha increases organoid size while addition of ROCKi increases the colony forming efficiency when murine distal total epithelial cells (isolated from the lung without trachea) are pre-cultured on collagen coated plates for 24 hrs prior after initial isolation. The effect on size is more pronounced when cells are precultured for 24 hrs on collagen coated plates after initial isolation. The drop in CFE in the Pifithrin alpha+ROCKi group is likely due space and nutrient availability constraints due to the large number of organoids per well.
(§3) ROCKi increases the colony forming efficiency when murine distal total epithelial cells (isolated from the lung without trachea) are pre-cultured on collagen coated plates for 24 hrs prior after initial isolation. The effect on size is more pronounced when cells are precultured for 24 hrs on collagen coated plates after initial isolation. The drop in CFE in the Pifithrin alpha+ROCKi group is likely due space and nutrient availability constraints due to the large number of organoids per well. Addition of both ROCKi and Pifithrin alpha (in presence of SB431542) increases the colony forming efficiency of freshly isolated alveolar type II cells (regional stem cells which maintain the epithelium of the air sacs in the lung). The effect is synergistic for their combined use, similar to that seen for total distal epithelial cells in the previous figures.

[5] = tested on: freshly isolated alveolar type II cells; experiment: Organoid culture of lineage labelled murine alveolar type II cells; type: cell-based; details: GFP+ alveolar type II cells, in presence of SB431542
From the text: FIG. 15. Effect of ROCK and P53 inhibition on lineage labelled murine alveolar type II cells. GFP^+ alveolar type II cells were isolated from tamoxifen treated SPC-CreER/ROSARG mice. Addition of both ROCKi and Pifithrin alpha (in presence of SB431542) increases the colony forming efficiency of freshly isolated alveolar typeII cells (regional stem cells which maintain the epithelium of the air sacs in the lung). The effect is synergistic for their combined use, similar to that seen for total distal epithelial cells in the previous figures.
as §3

[6] = tested on: freshly isolated murine proximal total epithelial cells; experiment: Organoid culture of murine tracheal progenitor (basal) cells; type: cell-based
Experimental: FIG. 18. Effect of ROCK and P53 inhibition on murine tracheal progenitor (basal) cells. Addition of both ROCKi (in presence of SB431542) increases the colony forming efficiency of freshly isolated murine proximal total epithelial cells (isolated from the murine trachea).
as §1

[7] = tested on: Scgb1a1 immunoreactive cells; experiment: Club cell ablation by gancyclovir in Scgb1a1-HSVtk transgenic mice; type: in vivo; details: 12.5 mg total delivered dose through miniosmotic pump, 7 days post-treatment
Experimental: FIG. 9. Orthotopic cell transplantation. Scgb1a1-HSVtk transgenic mice were exposed to gancyclovir delivered through miniosmotic pump and club cell ablation monitored by immunofluorescence. A dose of 12.5 mg gancyclovir (total delivered dose) led to >90% loss of Scgb1a1 immunoreactive cells 7 days post-treatment (red immunofluorescence in panel A). Total lung cells were isolated from ROSA-GFP mice and 1×10^6 cells transplanted into lungs of gancyclovir-treated mice that received i.t. chlodronate-containing liposomes for depletion of macrophages. Transplanted cells are shown in green in B and C, with cell type-specific markers shown by red immunofluorescence in C. Transplantation of 1×10^6 ROSA-mT lung cells (total cells following depletion of CD45+ fraction) into recipient lung tissue pre-conditioned by 6 Gy X-Rays led to efficient engraftment as shown by light sheet microscopy 2 weeks post transplant (D). The Inventors' initial efforts to develop a protocol for functional engraftment of transplanted epithelial stem cells involved sequential ablation of club cells through delivery of gancyclovir to Scgb1a1-HSVtk trangenic mice followed by delivery of liposome encapsulated chlodronate to deplete macrophages (FIG. 9A-C). […] Difficulties with this model were lack of translatability and poor survival of recipient mice. […]

Question: With `O=S(=O)(c1cccc2cnccc12)N1CCCNCC1` [HA1077] as the molecule, how does the colony-forming ability (airway epithelial cells) read?
Answer: without altering

Question: And the “in vitro clonogenic potential” value (airway epithelial cells)?
Answer: increases

Question: For `NC(=O)c1ccc(-c2nc(-c3ccc4c(c3)OCO4)c(-c3ccccn3)[nH]2)cc1` [SB 431542], which differentiation potential (distal progenitor cells) is on record?
Answer: did not alter

Question: And the “% colony forming efficiency” value [1]?
Answer: increases

Question: For `C[C@@H](N)[C@H]1CC[C@H](C(=O)Nc2ccncc2)CC1.Cl.Cl` [ROCKi, Y-27632 dihydrochloride], which colony forming efficiency [2] is on record?
Answer: increases

Question: And the “survival and expansion of human bronchial epithelial stem cells” value [3]?
Answer: promote survival and expansion

Question: And the proliferation of cells (freshly isolated cells)?
Answer: have an effect on proliferation

Question: And the colony forming efficiency [4]?
Answer: increase

Question: What about the differentiation potential (distal progenitor cells; dihydrochloride) of the same molecule?
Answer: did not alter; also recorded: do not alter

Question: And the colony forming efficiency [5]?
Answer: increases

Question: And the “size of the alveolar organoids” value [5]?
Answer: does not increase

Question: What about the colony forming efficiency ([6]; cells isolated from the murine trachea, in presence of SB431542) of the same molecule?
Answer: increases

Question: What about the “survival of proximal and distal progenitors (inferred from colony forming ability)” value ([6]; comparison of proximal and distal progenitor cell types, dihydrochloride) of the same molecule?
Answer: increase survival of both proximal and distal progenitors; also recorded: increases survival

Question: What about the colony forming efficiency ([1]; freshly isolated cells, in presence of SB431542 (FIG. 13)) of the same molecule?
Answer: increases

Question: What about the “survival and proliferation of the stem cells (inferred from CFE and organoid size)” value ([1]; freshly isolated distal cells, FIG. 13) of the same molecule?
Answer: increase survival

Question: And the “% colony forming efficiency” value [1]?
Answer: increase

Question: With `Nc1nc(O)c2ncn(COC(CO)CO)c2n1` [gancyclovir] as the molecule, how does the “loss of Scgb1a1 immunoreactive cells” value [7] read?
Answer: > 90%

— US20210147811A1, “METHODS FOR IN VITRO EXPANSION OF ADULT TISSUE STEM CELLS” (CEDARS-SINAI MEDICAL CENTER, priority 2018, published 2021)
